Experiments:
[1] = tested on: T-lymphoblastic leukemia (CEM); assay: Cytotoxicity assay (Alamar Blue), CEM; format: cell-based, human; conditions: CEM cells, 72 h of treatment, in DMF
Method: (§1) All new platinum(II) complexes were screened for cytotoxic activity against following tumor cell lines: T-lymphoblastic leukemia (CEM), epithelial breast carcinoma (MCF7), and cervical carcinoma cell lines (HeLa) (Table 2). A control of cytotoxicity was done with normal human fibroblasts (BJ) and human umbilical vein endothelial cells (HUVEC). The cytotoxicity of all substances in BJ and HUVEC was very similar. […] Its sensitivity against HeLa cell line (7.0 µM) was better than that of cisplatin (11.4 µM). However, the toxicity of 23a against normal human cells (BJ and HUVEC) was similar to that of cisplatin. […] Taking into account lack of activity of cholic and hyodeoxycholic acids-based complexes at studied concentrations (against all tested cell lines IC50 > 50 µM) we can suppose that modifications of bile acids should be focused on the most lipophilic lithocholic acid derivatives. The results presented here provide an inspiration for further studies in this area.
(§2) Cisplatin derivatives were evaluated for their cytotoxic activities in vitro in following cell lines derived from various tumors: T-lymphoblastic leukemia (CEM), epithelial breast carcinoma (MCF7) and cervical carcinoma cell lines (HeLa) (all from ECACC, UK) and also in normal human fibroblasts (BJ; from ATCC, USA). Human umbilical vein endothelial cells (HUVEC) were a kind gift from Prof Jitka Ulrichová (Medical Faculty, Palacký University, Olomouc, Czech Republic). HUVEC were grown in ECPM medium (Provitro, Berlin, Germany). Six serial 3-fold dilutions in triplicate of each drug in DMF was administered in every cell line for 72 h. Alamar Blue dye was used for staining of living cells only. IC50 values (50% inhibitory concentrations) were calculated as the proportions of surviving cells. A detailed procedure for the cytotoxicity assay was described previously, except for using Alamar Blue dye instead of Calcein AM [37]. Briefly, the percentage of surviving cells in each well was calculated by dividing the intensity of the fluorescence signals from the exposed wells by the intensity of signals from control wells and multiplying by 100. These ratios were then used to construct dose–response curves, from which IC50 values, i.e., concentrations of the respective compounds that were lethal to 50% of the tumor cells, were calculated. The results obtained from cytotoxicity assays are shown in Table 2 (mean values ± SD obtained from three independent experiments performed in triplicate).

[2] = tested on: epithelial breast carcinoma (MCF7); assay: Cytotoxicity assay (Alamar Blue), MCF7; format: cell-based, human; conditions: MCF7 cells, 72 h of treatment, in DMF
Method: as §1, §2

[3] = tested on: cervical carcinoma cell lines (HeLa); assay: Cytotoxicity assay (Alamar Blue), HeLa; format: cell-based, human; conditions: HeLa cells, 72 h of treatment, in DMF
Method: as §1, §2

[4] = tested on: normal human fibroblasts (BJ); assay: Cytotoxicity assay (Alamar Blue), BJ; format: cell-based; conditions: BJ cells, 72 h of treatment, in DMF
Method: as §1, §2

[5] = tested on: human umbilical vein endothelial cells (HUVEC); assay: Cytotoxicity assay (Alamar Blue), HUVEC; format: cell-based; conditions: 72 h of treatment, in DMF
Method: as §1, §2

[6] = test done at temperature 37 °C due to solubility problems

| Molecule | IC50 ([1]; mean ± S.D.) | IC50 ([2]; mean ± S.D.) | IC50 ([3]; mean ± S.D.) | IC50 ([4]; mean ± S.D.) | IC50 ([5]; mean ± S.D.) | melting point | also measured |
| --- | --- | --- | --- | --- | --- | --- | --- |
| cis-Dichloro-24-[(N-2′-aminoeth-1′-yl-κN)aminocholane-3α,12α-diol-κN]platinum(II) [22b] | 37.1 ± 6.8 µM | 20.5 ± 3.1 µM | 35.5 ± 5.3 µM | 36.6 ± 5.1 µM | 38.2 ± 0.6 µM | – | – |
| C[C@H](CCCNCCN)[C@H]1CC[C@H]2[C@@H]3C[C@H](O)C4C[C@H](O)CC[C@]4(C)[C@H]3CC[C@]12C (stereo partly drawn) | – | – | – | – | – | 72 to 74 °C | – |
| C[C@H](CCCNCCCN)[C@H]1CC[C@H]2[C@@H]3CCC4C[C@H](O)CC[C@]4(C)[C@H]3C[C@H](O)[C@]12C (stereo partly drawn) | – | – | – | – | – | 64 to 66 °C | – |
| cis-Dichloro-24-[(N-2′-aminoeth-1′-yl-κN)aminocholan-3α-ol-κN]platinum(II) [22a] | – | – | – | – | – | – | IC50 [1, 6]: 40.2 ± 2.6 µM; IC50 [2, 6]: > 50 µM; IC50 [3, 6]: > 50 µM; IC50 [4, 6]: > 50 µM; IC50 [5, 6]: > 50 µM |
| C[C@H](CCCNCCN)[C@H]1CC[C@H]2[C@@H]3CCC4C[C@H](O)CC[C@]4(C)[C@H]3C[C@H](O)[C@]12C (stereo partly drawn) | – | – | – | – | – | 70 to 72 °C | – |
| C[C@H](CCCNCCCN)[C@H]1CC[C@H]2[C@@H]3CCC4C[C@H](O)CC[C@]4(C)[C@H]3CC[C@]12C (stereo partly drawn) | – | – | – | – | – | 92 to 94 °C | – |
| cis-Dichloro-24-[(N-3′-aminoprop-1′-yl-κN)aminocholan-3α-ol-κN]platinum(II) [23a] | 3.6 ± 0.1 µM | 7 ± 0.5 µM | 7 ± 0.2 µM | 6.3 ± 0.8 µM | 6.9 ± 0.6 µM | – | – |
| C[C@H](CCCNCCN)[C@H]1CC[C@H]2[C@@H]3CCC4C[C@H](O)CC[C@]4(C)[C@H]3CC[C@]12C (stereo partly drawn) | – | – | – | – | – | 107 to 110 °C | – |
| cis-Dichloro-24-[(N-3′-aminoprop-1′-yl-κN)aminocholane-3α,12α-diol-κN]platinum(II) [23b] | 31.6 ± 3.5 µM | 23.3 ± 4.7 µM | 36.2 ± 4.3 µM | 42.5 ± 3.2 µM | 34.4 ± 5.6 µM | – | – |
| N.N.[Cl][Pt][Cl] [cisplatin] | 0.8 ± 0.1 µM | 7.7 ± 1.7 µM | 11.4 ± 3.8 µM | 6.9 ± 0.9 µM | 5.5 ± 1.1 µM | – | – |
